Test results from ChEMBL document CHEMBL1127794, “Structure-activity relationships of 1,3-dialkylxanthine derivatives at rat A3 adenosine receptors” (J Med Chem, 1994).

Tests used:
[1] = target: Adenosine receptors; A1 & A3 (Rattus norvegicus) (UniProt P25099+P28647); assay: Ratio of selectivity for A3 and A1 receptors at rat brain
Adenosine receptor A3 = target: T1, Adenosine receptor A3 (Rattus norvegicus, UniProt P28647); assay: Displacement of [125I]AB-MECA from membranes of CHO cells stably transfected with the rat adenosine A3 receptor cDNA; format: cell membranes
T1 sequence (P28647 whole entry): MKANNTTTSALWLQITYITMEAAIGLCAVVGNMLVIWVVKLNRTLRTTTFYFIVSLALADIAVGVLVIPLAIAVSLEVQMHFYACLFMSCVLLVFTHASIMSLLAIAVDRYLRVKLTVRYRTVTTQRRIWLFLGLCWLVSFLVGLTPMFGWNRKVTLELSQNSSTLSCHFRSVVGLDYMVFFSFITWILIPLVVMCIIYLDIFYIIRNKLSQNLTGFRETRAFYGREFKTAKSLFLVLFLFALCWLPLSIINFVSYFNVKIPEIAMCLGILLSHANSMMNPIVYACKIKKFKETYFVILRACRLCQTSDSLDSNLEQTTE

[2] = target: T2, Adenosine receptor A3 (Rattus norvegicus) (UniProt P28647); assay: Tested for the binding affinity, for displacement of [125I]AB-MECA in membranes of CHO cells stably transfected with the rat A3-cDNA at the 10e-5 concentration (M); format: cell membranes
T2 sequence (whole entry): T1 sequence (P28647 whole entry)

[3] = target: T2, Adenosine receptor A3 (Rattus norvegicus); assay: Tested for the binding affinity, for displacement of [125I]AB-MECA in membranes of CHO cells stably transfected with the rat A3-cDNA at the 10e-4 concentration (M); format: cell membranes
[4] = target: Adenosine receptor A2a (Rattus norvegicus) (UniProt P30543); assay: Tested for the binding affinity, for displacement of [3H]-CGS- 21680 in A2a receptors of rat striatal membrane at 10e-5 concentration (M)
Adenosine receptor A2a = Adenosine receptor A2a (Rattus norvegicus, UniProt P30543)
Description: Displacement of [3H]-CGS- 21680 from adenosine A2a receptors of rat striatal membrane

Adenosine receptor A1 = target: T3, Adenosine receptor A1 (Rattus norvegicus, UniProt P25099)
T3 sequence (P25099 whole entry): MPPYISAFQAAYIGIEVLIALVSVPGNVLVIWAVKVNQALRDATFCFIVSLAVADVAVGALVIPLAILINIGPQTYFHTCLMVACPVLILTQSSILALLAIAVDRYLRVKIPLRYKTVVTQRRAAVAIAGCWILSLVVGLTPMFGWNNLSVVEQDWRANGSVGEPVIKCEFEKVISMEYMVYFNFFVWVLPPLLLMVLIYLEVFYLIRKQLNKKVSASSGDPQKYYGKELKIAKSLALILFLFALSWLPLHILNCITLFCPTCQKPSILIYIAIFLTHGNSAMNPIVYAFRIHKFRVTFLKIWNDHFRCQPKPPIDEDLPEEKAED
Description: Displacement of [3H]PIA from adenosine A1 receptors of rat brain membrane

[5] = target: T2, Adenosine receptor A3 (Rattus norvegicus); assay: Tested for the binding affinity, for displacement of [125I]AB-MECA in membranes of CHO cells stably transfected with the rat A3-cDNA at the 3*10e-5 concentration (M); format: cell membranes
[6] = target: Adenosine receptor A2a (Rattus norvegicus) (UniProt P30543); assay: Tested for the binding affinity, for displacement of [3H]-CGS- 21680 in A2a receptors of rat striatal membrane at 10e-4 concentration (M)
[7] = target: T4, Adenosine receptor A1 (Rattus norvegicus) (UniProt P25099); assay: Tested for the binding affinity, for displacement of [3H]PIA in A1 receptors of rat brain membrane at 10e-4 concentration (M); format: cell membranes
T4 sequence (whole entry): T3 sequence (P25099 whole entry)

Sequence of Adenosine receptor A2a (Rattus norvegicus) (P30543 whole entry): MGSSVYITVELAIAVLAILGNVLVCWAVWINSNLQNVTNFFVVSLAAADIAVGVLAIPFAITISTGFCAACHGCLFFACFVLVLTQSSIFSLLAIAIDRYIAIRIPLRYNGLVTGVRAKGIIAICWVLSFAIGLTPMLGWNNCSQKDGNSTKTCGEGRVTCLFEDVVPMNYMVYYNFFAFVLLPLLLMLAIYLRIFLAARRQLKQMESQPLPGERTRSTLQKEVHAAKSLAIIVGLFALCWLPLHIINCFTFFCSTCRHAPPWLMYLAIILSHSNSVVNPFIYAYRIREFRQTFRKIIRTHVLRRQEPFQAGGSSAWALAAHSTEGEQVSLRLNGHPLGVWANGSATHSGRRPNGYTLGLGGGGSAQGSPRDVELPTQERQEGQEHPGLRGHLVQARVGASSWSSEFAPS
Sequence of Adenosine receptor A2a (P30543 whole entry): as above

| SMILES | Ratio [1] | Ki (Adenosine receptor A3) [µM] | Ki (Adenosine receptor A2a) [µM] | Ki (Adenosine receptor A1) [µM] | other results |
| --- | --- | --- | --- | --- | --- |
| CCCCn1c(=O)c2nc[nH]c2n(CCCC)c1=O | 290 | – | – | – | – |
| CCCCn1c(=O)c2nc(-c3ccc(OCC(=O)O)cc3)[nH]c2n(CCCC)c1=O | 640 | – | – | – | – |
| Cn1c(=O)c2c(nc(/C=C/c3cccc(Cl)c3)n2C)n(C)c1=O | – | – | – | – | inhibition [2]: 4.2% |
| Cn1c(=O)c2c(ncn2C)n(C)c1=O | – | – | – | – | inhibition [3]: 30.1% |
| CCCCCCn1c(=O)c2nc[nH]c2n(CCCCCC)c1=O | > 10 | – | – | – | inhibition [2]: 9.2%; inhibition [4]: 14.3% |
| CCCCn1c(=O)c2nc(CCCC(=O)O)[nH]c2n(CCCC)c1=O | 9.4 | 133 | 113 | – | – |
| Cn1c(=O)c2nc(CCCC(=O)O)[nH]c2n(C)c1=S | 1.6 | 9.36 | 67.8 | 5.7 | – |
| CCCCn1c(=O)c2nc(/C=C/C(=O)O)[nH]c2n(CCCC)c1=O | 22 | 73.7 | 16.5 | 3.37 | – |
| Cn1c(=O)c2c(nc(/C=C/c3cccc(NC(=O)CCCCC(=O)O)c3)n2C)n(C)c1=O | 36 | 234 | 0.00722 | 6.51 | – |
| CCCn1c(=O)c2nc(-c3ccc(OCC(=O)O)cc3)[nH]c2n(Cc2ccc(N)c(I)c2)c1=O | 32 | 1.17 | 0.7 | 0.037 | – |
| CCCCn1c(=O)c2[nH]c(CCCCC(=O)O)nc2n(CCCC)c1=O | – | – | 20 | 5.27 | – |
| CCCn1c(=O)c2nc(-c3ccc(OCC(=O)NCCNC(=O)CCC(=O)O)cc3)[nH]c2n(CCC)c1=O | 520 | 40.6 | 0.252 | 0.078 | – |
| CCCCn1c(=O)c2nc(CCCCC(=O)O)[nH]c2n(CCCC)c1=O | – | – | – | – | inhibition [5]: 13% |
| CCCn1c(=O)c2nc(-c3ccc(C(=O)O)cc3)[nH]c2n(CCC)c1=O | 230 | 45.1 | 0.637 | – | – |
| CCCCn1c(=O)c2nc(CCC(=O)O)[nH]c2n(CCCC)c1=O | 18 | 129 | 71.7 | 7.11 | – |
| CCCCn1c(=O)c2nc[nH]c2n(Cc2ccccc2)c1=O | 110 | 74.2 | 1.2 | 0.668 | – |
| C=CCn1c(=O)c2nc(-c3ccc(OCC(=O)O)cc3)[nH]c2n(CC=C)c1=O | 230 | – | – | – | – |
| CCCCn1c(=O)c2c(nc(/C=C/C(=O)O)n2C)n(CCCC)c1=O | 21 | 127 | 23.2 | 5.91 | – |
| CCCn1c(=O)c2nc(-c3ccc(/C=C/C(=O)O)cc3)[nH]c2n(CCC)c1=O | – | – | 0.8 | – | – |
| Cn1c(=O)c2c(nc(/C=C/C(=O)O)n2C)n(C)c1=O | < 1 | 130 | – | – | – |
| Cn1c(=O)c2nc(CCCC(=O)O)[nH]c2n(C)c1=O | < 1 | – | – | – | inhibition [6]: 26%; inhibition [7]: 0% |

Continued, in another order:

| Ratio [1] | Ki (Adenosine receptor A3) [µM] | Ki (Adenosine receptor A2a) [µM] | Ki (Adenosine receptor A1) [µM] | SMILES | other results |
| --- | --- | --- | --- | --- | --- |
| 1300 | – | – | – | CCCn1c(=O)c2nc(-c3ccc(OCC(=O)O)cc3)[nH]c2n(CCC)c1=O | – |
| 1100 | 21.7 | – | – | CCCn1c(=O)c2nc(-c3ccc(OCC(=O)NCCNC(=O)CN(CC(=O)O)C(=O)OCC4c5ccccc5-c5ccccc54)cc3)[nH]c2n(CCC)c1=O | – |
| – | 93.4 | – | – | Cn1c(=O)c2[nH]c(CCCC(=O)O)nc2n(C)c1=O | – |
| – | 90.1 | – | – | CCCn1c(=O)c2[nH]c(-c3ccc(S(=O)(=O)O)cc3)nc2n(CCC)c1=O | – |
| – | 6.77 | 0.226 | – | CCCn1c(=O)c2[nH]c(-c3ccc(OCC(=O)O)cc3)nc2n(CCC)c1=S | – |
| 2700 | – | – | – | CCCn1c(=O)c2nc(-c3ccc(OCC(=O)NCCNC(=O)CNCC(=O)O)cc3)[nH]c2n(CCC)c1=O | – |
| 640 | – | – | – | CCCn1c(=O)c2nc(-c3ccc(S(=O)(=O)O)cc3)[nH]c2n(CCC)c1=O | – |
| 126 | – | – | – | CCCn1c(=O)c2nc(-c3ccc(OCC(=O)O)cc3)[nH]c2n(CCC)c1=S | – |
| > 10 | – | – | – | O=c1c2[nH]cnc2n(Cc2ccccc2)c(=O)n1Cc1ccccc1 | inhibition [2]: 20.3%; inhibition [4]: 3.6% |
| – | 29 | – | – | CCCn1c(=O)c2[nH]c(-c3ccc(OCC(=O)NCCN)cc3)nc2n(CCC)c1=O [XANTHINE AMINE CONGENER] | – |
| 800 | 58.5 | 0.455 | 0.073 | CCCn1c(=O)c2nc(-c3ccc(OCC(=O)NCC(=O)O)cc3)[nH]c2n(CCC)c1=O | – |
| – | – | 29.3 | 0.5 | CCCCn1c(=O)c2[nH]cnc2n(CCCC)c1=O | – |
| > 10 | – | 46 | – | Cn1c(=O)c2c(ncn2Cc2ccccc2)n(C)c1=O | inhibition [3]: 29.7% |
| 35 | 99.9 | 9.22 | 2.86 | CCCn1c(=O)c2nc(-c3ccc(OCC(=O)NCCNC(=O)CN(CC(=O)O)C(=O)CCC(=O)O)cc3)[nH]c2n(CCC)c1=O | – |
| 13 | 289 | 0.0099 | 22.3 | Cn1c(=O)c2c(nc(/C=C/c3cccc(NC(=O)CCCC(=O)O)c3)n2C)n(C)c1=O | – |
| 9.2 | 189 | 0.0129 | 20.5 | Cn1c(=O)c2c(nc(/C=C/c3cccc(NC(=O)CCC(=O)O)c3)n2C)n(C)c1=O | – |
| – | 5.29 | – | – | CCCn1c(=O)c2[nH]c(C3CCCC3)nc2n(CCC)c1=O [1,3-DIPROPYL-8-CYCLOPENTYLXANTHINE [DPCPX]] | – |
| – | – | 5.85 | 0.793 | CCCCn1c(=O)c2c(nc(/C=C/C(=O)OC)n2C)n(CCCC)c1=O | – |
| – | 98 | 0.157 | 0.036 | CCCn1c(=O)c2[nH]c(-c3ccc(OCC(=O)NCCNC(=O)CNCC(=O)O)cc3)nc2n(CCC)c1=O | – |
